# In ChEMBL document CHEMBL5303573, “Mapping human microbiome drug metabolism by gut bacteria and their genes” (Nature, 2019):
# Legend:
# [1] = The drug is tested on Dorea formicigenerans strain: ATCC27755 for biotransformation. The drug concentrations were measured before and after a 12-h incubation by liquid-chromatography-coupled mass spectrometry (LC–MS); settings: 2 µM
# [2] = The drug is tested on Bacteroides xylanisolvens strain: DSM18836 for biotransformation. The drug concentrations were measured before and after a 12-h incubation by liquid-chromatography-coupled mass spectrometry (LC–MS); settings: 2 µM
# [3] = The drug is tested on Bacteroides caccae strain: ATCC43185 for biotransformation. The drug concentrations were measured before and after a 12-h incubation by liquid-chromatography-coupled mass spectrometry (LC–MS); settings: 2 µM
# [4] = akkermansia muciniphila, 12 h, 2 µM
# Description: The drug is tested on Akkermansia muciniphila strain: ATCC BAA-835 for biotransformation. The drug concentrations were measured before and after a 12-h incubation by liquid-chromatography-coupled mass spectrometry (LC–MS)
# [5] = The drug is tested on Bifidobacterium ruminantium strain: fecal isolate for biotransformation. The drug concentrations were measured before and after a 12-h incubation by liquid-chromatography-coupled mass spectrometry (LC–MS); settings: 2 µM
# [6] = The drug is tested on Ruminococcus torques strain: ATCC27756 for biotransformation. The drug concentrations were measured before and after a 12-h incubation by liquid-chromatography-coupled mass spectrometry (LC–MS); type: ADME; parameters: dose 2 uM, timepoint 0 vs 12 hours; settings: 2 µM
# [7] = The drug is tested on Providencia stuartii strain: ATCC25827 for biotransformation. The drug concentrations were measured before and after a 12-h incubation by liquid-chromatography-coupled mass spectrometry (LC–MS); settings: 2 µM
# [8] = The drug is tested on Providencia rettgeri strain: DSM1131 for biotransformation. The drug concentrations were measured before and after a 12-h incubation by liquid-chromatography-coupled mass spectrometry (LC–MS); type: ADME; parameters: dose 2 uM, timepoint 0 vs 12 hours; settings: 2 µM
# [9] = The drug is tested on Anaerococcus hydrogenalis strain: DSM7454 for biotransformation. The drug concentrations were measured before and after a 12-h incubation by liquid-chromatography-coupled mass spectrometry (LC–MS); settings: 2 µM
# [10] = bacteroides fragilis, 12 h, 2 µM
# Description: The drug is tested on Bacteroides fragilis strain: DS-208 for biotransformation. The drug concentrations were measured before and after a 12-h incubation by liquid-chromatography-coupled mass spectrometry (LC–MS)
# [11] = The drug is tested on Bacteroides fragilis strain: HMW615 for biotransformation. The drug concentrations were measured before and after a 12-h incubation by liquid-chromatography-coupled mass spectrometry (LC–MS); settings: 2 µM
# [12] = The drug is tested on Bacteroides sp. WH2 strain: WH2 for biotransformation. The drug concentrations were measured before and after a 12-h incubation by liquid-chromatography-coupled mass spectrometry (LC–MS); settings: bacteroides sp. wh2, 12 h, 2 µM
# [13] = The drug is tested on Bacteroides coprophilus strain: DSM18228 for biotransformation. The drug concentrations were measured before and after a 12-h incubation by liquid-chromatography-coupled mass spectrometry (LC–MS); settings: 2 µM
# [14] = The drug is tested on Bacteroides uniformis strain: ATCC8492 for biotransformation. The drug concentrations were measured before and after a 12-h incubation by liquid-chromatography-coupled mass spectrometry (LC–MS); settings: 2 µM
# [15] = The drug is tested on Collinsella intestinalis strain: DSM13280 for biotransformation. The drug concentrations were measured before and after a 12-h incubation by liquid-chromatography-coupled mass spectrometry (LC–MS); settings: 2 µM
# [16] = bacteroides intestinalis, 12 h, 2 µM
# Description: The drug is tested on Bacteroides intestinalis strain: DSM17393 for biotransformation. The drug concentrations were measured before and after a 12-h incubation by liquid-chromatography-coupled mass spectrometry (LC–MS)
# [17] = The drug is tested on Bacteroides finegoldii strain: DSM17565 for biotransformation. The drug concentrations were measured before and after a 12-h incubation by liquid-chromatography-coupled mass spectrometry (LC–MS); settings: 2 µM
# [18] = The drug is tested on Bacteroides vulgatus strain: ATCC8482 for biotransformation. The drug concentrations were measured before and after a 12-h incubation by liquid-chromatography-coupled mass spectrometry (LC–MS); settings: phocaeicola vulgatus, 2 µM
# [19] = The drug is tested on Odoribacter splanchnicus strain: fecal isolate for biotransformation. The drug concentrations were measured before and after a 12-h incubation by liquid-chromatography-coupled mass spectrometry (LC–MS); settings: 2 µM
# [20] = parabacteroides johnsonii, 12 h, 2 µM
# Description: The drug is tested on Parabacteroides johnsonii strain: DSM18315 for biotransformation. The drug concentrations were measured before and after a 12-h incubation by liquid-chromatography-coupled mass spectrometry (LC–MS)
Structure (SMILES),Bacterial Biotransformation [1],Bacterial Biotransformation [2],Bacterial Biotransformation [3],Bacterial Biotransformation [4],Bacterial Biotransformation [5],Bacterial Biotransformation [6],Bacterial Biotransformation [7],Bacterial Biotransformation [8],Bacterial Biotransformation [9],Bacterial Biotransformation [10],Bacterial Biotransformation [11],Bacterial Biotransformation [12],Bacterial Biotransformation [13],Bacterial Biotransformation [14],Bacterial Biotransformation [15],Bacterial Biotransformation [16],Bacterial Biotransformation [17],Bacterial Biotransformation [18],Bacterial Biotransformation [19],Bacterial Biotransformation [20]
Nc1nnc(-c2cccc(Cl)c2Cl)c(N)n1 [LAMOTRIGINE],Compound NOT metabolized,Compound NOT metabolized,Compound NOT metabolized,Compound NOT metabolized,Compound NOT metabolized,Compound NOT metabolized,Compound NOT metabolized,Compound NOT metabolized,Compound NOT metabolized,Compound NOT metabolized,Compound NOT metabolized,Compound NOT metabolized,Compound NOT metabolized,Compound NOT metabolized,Compound NOT metabolized,Compound NOT metabolized,Compound NOT metabolized,–,–,–
O=C(Nc1ccccc1)OCC(CN1CCCCC1)OC(=O)Nc1ccccc1 (stereo not given) [DIPERODON],Compound NOT metabolized,Compound NOT metabolized,Compound NOT metabolized,Compound NOT metabolized,Compound NOT metabolized,Compound NOT metabolized,Compound NOT metabolized,Compound NOT metabolized,Compound NOT metabolized,Compound NOT metabolized,Compound NOT metabolized,Compound NOT metabolized,Compound NOT metabolized,Compound NOT metabolized,Compound NOT metabolized,Compound NOT metabolized,Compound NOT metabolized,Compound NOT metabolized,–,–
Cc1ccccc1N1C(=O)c2cc(S(N)(=O)=O)c(Cl)cc2NC1C (stereo not given) [METOLAZONE],–,Compound NOT metabolized,Compound NOT metabolized,Compound NOT metabolized,Compound NOT metabolized,Compound NOT metabolized,Compound NOT metabolized,–,–,Compound NOT metabolized,Compound NOT metabolized,Compound NOT metabolized,Compound NOT metabolized,Compound NOT metabolized,Compound NOT metabolized,Compound NOT metabolized,–,Compound NOT metabolized,Compound NOT metabolized,Compound NOT metabolized
CO[C@]12C[C@@H](COC(=O)c3cncc(Br)c3)CN(C)[C@@H]1Cc1cn(C)c3cccc2c13 [NICERGOLINE],Compound NOT metabolized,Compound NOT metabolized,Compound NOT metabolized,Compound NOT metabolized,Compound NOT metabolized,Compound NOT metabolized,Compound NOT metabolized,–,–,Compound NOT metabolized,Compound NOT metabolized,Compound NOT metabolized,Compound NOT metabolized,Compound metabolized,Compound NOT metabolized,Compound NOT metabolized,Compound NOT metabolized,Compound metabolized,Compound NOT metabolized,Compound NOT metabolized
Cc1ccc(S(=O)(=O)NC(=O)NN2CC3CCCC3C2)cc1 (stereo not given) [GLICLAZIDE],Compound NOT metabolized,Compound NOT metabolized,Compound NOT metabolized,Compound NOT metabolized,Compound NOT metabolized,Compound NOT metabolized,Compound NOT metabolized,–,Compound NOT metabolized,Compound NOT metabolized,Compound NOT metabolized,Compound NOT metabolized,Compound NOT metabolized,–,Compound NOT metabolized,Compound NOT metabolized,Compound NOT metabolized,Compound metabolized,Compound NOT metabolized,Compound NOT metabolized
CC(C)[C@H]1CC[C@H](C(=O)N[C@H](Cc2ccccc2)C(=O)O)CC1 [NATEGLINIDE],Compound NOT metabolized,Compound NOT metabolized,Compound NOT metabolized,Compound NOT metabolized,Compound NOT metabolized,Compound NOT metabolized,Compound NOT metabolized,Compound NOT metabolized,Compound NOT metabolized,Compound metabolized,Compound metabolized,Compound NOT metabolized,Compound NOT metabolized,Compound metabolized,Compound NOT metabolized,–,Compound NOT metabolized,Compound metabolized,Compound metabolized,–
C#C[C@]1(OC(C)=O)CC[C@H]2[C@@H]3CCC4=C/C(=N/O)CC[C@@H]4[C@H]3CC[C@@]21CC [NORGESTIMATE],Compound NOT metabolized,Compound NOT metabolized,Compound NOT metabolized,–,Compound NOT metabolized,Compound NOT metabolized,Compound NOT metabolized,Compound NOT metabolized,Compound NOT metabolized,Compound NOT metabolized,Compound NOT metabolized,Compound NOT metabolized,Compound NOT metabolized,Compound metabolized,Compound NOT metabolized,Compound NOT metabolized,Compound metabolized,–,–,Compound metabolized
CCOC(=O)[C@H](CCc1ccccc1)N[C@@H](C)C(=O)N1CCC[C@H]1C(=O)O.O=C(O)/C=C\C(=O)O [ENALAPRIL MALEATE],Compound NOT metabolized,Compound metabolized,Compound NOT metabolized,Compound NOT metabolized,Compound NOT metabolized,Compound NOT metabolized,Compound NOT metabolized,Compound NOT metabolized,Compound NOT metabolized,Compound NOT metabolized,Compound NOT metabolized,Compound NOT metabolized,–,Compound NOT metabolized,Compound NOT metabolized,Compound NOT metabolized,Compound NOT metabolized,Compound NOT metabolized,Compound NOT metabolized,–
